Measurements reported in US20200289554A1, “BIOORTHOGONAL COMPOUNDS COMPRISING A PROPARGYL GROUP FOR TREATING CANCER” (THE UNIVERSITY COURT OF THE UNIVERSITY OF EDINBURGH, priority 2016, published 2020).

Key:
U87G cells [1] = assay: BOOM conversion: prodrug + Pd0-resins in cell culture, cell viability, U87G; assay type: cell-based, human; details: Homo sapiens, 120 h, prodrug in combination with Pd0-resins 0.8 mg/mL, 5 days, read-out: EC50, prodrug + Pd-resins
Method: (§1) Following 5 days treatment, cells were incubated with PrestoBlue™ Cell Viability Reagent (Life Technologies) for 60-90 min. Fluorescence intensity values were related to the untreated cells (100% cell viability). […] Cells incubated in 0.1% (v/v) DMSO in media were used as untreated cell control.
(§2) The toxigenic effect as a result of in situ generation of parental drug in cell culture was determined by incubating all cells in tissue culture media containing 0.1% (v/v) DMSO and a) Pd^0, Au, or Pd/Au-resin (1 mg/mL for all cells tested, negative control); b) prodrug (negative control); or c) Pd^0, Au, or Pd/Au-resin (1 mg/mL for all cells)+prodrug (reaction assay). Cells incubated in 0.1% (v/v) DMSO in media was used as an untreated cell reference standard (100% viability). A PrestoBlue® cell viability assay as described above was carried out and fluorescent intensities compared to the untreated cell control.
A dose response study was performed for each cell line keeping the quantity of Pd^0 resin constant (0.8 mg/mL for U87G and 1 mg/mL for the rest of cell lines). […] Fluorescence intensity values (detected using a PerkinElmer EnVision 2101 multilabel reader with excitation filter at 540 nm and emissions filter at 590 nm) were determined relative to the untreated cell control.

T98 cells [2] = assay: Prodrug safety dose-response cell viability (PrestoBlue), T98; assay type: cell-based; details: Homo sapiens, 120 h, 5 days, no catalyst
Method: (§3) These cell lines were selected as these are primary malignancies against which the parental drugs are currently prescribed.
(§4) The toxicities of each active agent and prodrugs were compared by performing dose-response studies. […] Cell viability was analysed by fluoresce intensity (λex=540 nm; λem=590 nm) after 60-90 min incubation with PrestoBlue™ Reagent (Life Technologies).

U87G cells [3] = assay: Prodrug safety dose-response cell viability (PrestoBlue), U87G; assay type: cell-based, human; details: Homo sapiens, 120 h; U87G cells, 5 days, no catalyst; read-out: EC50 (cell viability)
Method: as §3, §4

T98 cells [4] = assay: BOOM conversion: prodrug + Pd0-resins in cell culture, cell viability, T98; assay type: cell-based, human; details: Homo sapiens, 120 h, prodrug in combination with Pd0-resins 1 mg/mL, 5 days, read-out: EC50, prodrug + Pd-resins
Method: as §1
Cell viabilities for each prodrug provided as a combination with palladium is presented in FIG. 7 in the right of each set of two bars. Data for prodrug in the absence of palladium catalyst is also provided (the left bar of each set of two bars) for comparison along with negative controls (from left to right: DMSO, Pd^0 and Doxorubicin). Cells were incubated in tissue culture media containing 0.1% (v/v) DMSO and: Pd^0-resins (1 mg/mL, negative control); 1 μM of each prodrug (negative control); and Pd^0-resins (1 mg/mL)+1 μM of each prodrug (BOOM reaction assay). Cells incubated in 0.1% (v/v) DMSO in media were used as untreated cell control.
Following 5 days treatment, cells were incubated with PrestoBlue™ Cell Viability Reagent (Life Technologies) for 90 min. Fluorescence intensity values were related to the untreated cells (100% cell viability). Data are provided in FIG. 8 for cells incubated in tissue culture media containing 0.1% (v/v) DMSO and: Pd^0-resins (1 mg/mL, negative control); 0.3-3 μM of Doxorubicin prodrug for A549 and DU145 cell lines, 0.1-1 μM of Doxorubicin prodrug for T98 cell line (negative control); 0.3-3 μM of Doxorubicin for A549 and DU145 cell lines, 0.1-1 μM of Doxorubicin for T98 cell line (positive control); and Pd^0-resin (1 mg/mL)+Doxorubicin prodrug (BOOM reaction assay). Cells incubated in 0.1% (v/v) DMSO in media were used as untreated cell control.
as §2
A dose response study was performed for each cell line keeping the quantity of Pd^0 resin constant (0.8 mg/mL for U87G and 1 mg/mL for the rest of cell lines). All cells were plated in Dulbecco's Modified Eagle Media (DMEM) supplemented with serum (10% FBS) and L-glutamine (2 mM). […]

EC50 (U87G cells [1]): 24.7 µM
Compound: C#CCOc1ccc(CONC(=O)CCCCCCC(=O)Nc2ccccc2)cc1 [POB-Vor, Propargyloxybenzyl-Vorinostat]
EC50 (T98 cells [2]): > 500 µM | EC50 (U87G cells [3]): > 500 µM | EC50 (T98 cells [4]): 16.8 µM
